Measurements as given in patent publication US10681909B2, “Herbicidal triazoles” (FMC Corporation, priority 2014, dated 2020).

Legend:
morningglory [1] = assay: Test A preemergence; format: in vivo, Ipomoea spp.; details: 0 to 100 scale (0 no effect, 100 complete control)
Method in brief: (§1)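 Plant seeds in loam soil blended with sand, then apply test chemical preemergence as a directed soil spray; in parallel, spray potted seedlings (one- to two-leaf, 2 to 10 cm) postemergence. Both treatments use a non-phytotoxic solvent mixture with surfactant.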

ducksalad [2] = assay: Test B flooded paddy test; format: in vivo, Heteranthera limosa; details: 250 g ai/ha, applied to paddy water at 2-leaf stage, visual rating after 13 to 15 d, scale 0 (no effect) to 100 (complete control)
Method in brief: (§2)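 Pots were flooded to 3 cm above the soil at treatment, and compounds were applied directly into the paddy water. That depth was held throughout. After 13 to 15 d in a greenhouse, plants were rated visually against untreated controls.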

ducksalad [3] = assay: Test C flooded paddy test; format: in vivo, Heteranthera limosa; details: Flood, applied to paddy water, rating after 13 to 15 d
Source text: (§3) At time of treatment, test pots were flooded to 3 cm above the soil surface, treated by application of test compounds directly to the paddy water, and then maintained at that water depth for the duration of the test. Treated plants and controls were maintained in a greenhouse for 13 to 15 d, after which time all species were compared to controls and visually evaluated. […] A dash (-) response means no test result.

sedge, umbrella [4] = assay: Test C flooded paddy test; format: in vivo, Cyperus difformis; details: Flood, applied to paddy water, rating after 13 to 15 d
Source text: as §3

barnyardgrass [5] = assay: Test A preemergence; format: in vivo, Echinochloa crus-galli; details: 0 to 100 scale (0 no effect, 100 complete control)
Method in brief: as §1

crabgrass, large [6] = assay: Test A preemergence; format: in vivo, Digitaria sanguinalis; details: 0 to 100 scale (0 no effect, 100 complete control)
Method in brief: as §1

pigweed [7] = assay: Test A preemergence; format: in vivo, Amaranthus retroflexus; details: 0 to 100 scale (0 no effect, 100 complete control)
Method in brief: as §1

rice [8] = assay: Test C flooded paddy test; format: in vivo, Oryza sativa; details: Flood, applied to paddy water, rating after 13 to 15 d
Source text: as §3

barnyardgrass [9] = assay: Test A postemergence; format: in vivo, Echinochloa crus-galli; details: 0 to 100 scale (0 no effect, 100 complete control), approx. 10 d
Method in brief: as §1

foxtail, giant [10] = assay: Test A postemergence; format: in vivo, Setaria faberii; details: 0 to 100 scale (0 no effect, 100 complete control), approx. 10 d
Method in brief: as §1

sedge, umbrella [11] = assay: Test B flooded paddy test; format: in vivo, Cyperus difformis; details: 250 g ai/ha, applied to paddy water at 2-leaf stage, visual rating after 13 to 15 d, scale 0 (no effect) to 100 (complete control)
Method in brief: as §2

velvetleaf [12] = assay: Test A postemergence; format: in vivo, Abutilon theophrasti; details: 0 to 100 scale (0 no effect, 100 complete control), approx. 10 d
Method in brief: as §1

wheat [13] = assay: Test A preemergence; format: in vivo, Triticum aestivum; details: 0 to 100 scale (0 no effect, 100 complete control)
Method in brief: as §1

barnyardgrass [14] = assay: Test B flooded paddy test; format: in vivo, Echinochloa crus-galli; details: 250 g ai/ha, applied to paddy water at 2-leaf stage, visual rating after 13 to 15 d, scale 0 (no effect) to 100 (complete control)
Method in brief: as §2

pigweed [15] = assay: Test A postemergence; format: in vivo, Amaranthus retroflexus; details: 0 to 100 scale (0 no effect, 100 complete control), approx. 10 d
Method in brief: as §1

barnyardgrass [16] = assay: Test C flooded paddy test; format: in vivo, Echinochloa crus-galli; details: Flood, applied to paddy water, rating after 13 to 15 d
Source text: as §3

corn [17] = assay: Test A preemergence; format: in vivo, Zea mays; details: 0 to 100 scale (0 no effect, 100 complete control)
Method in brief: as §1

rice [18] = assay: Test B flooded paddy test; format: in vivo, Oryza sativa; details: 250 g ai/ha, applied to paddy water at 2-leaf stage, visual rating after 13 to 15 d, scale 0 (no effect) to 100 (complete control)
Method in brief: as §2

foxtail, giant [19] = assay: Test A preemergence; format: in vivo, Setaria faberii; details: 0 to 100 scale (0 no effect, 100 complete control)
Method in brief: as §1

crabgrass, large [20] = assay: Test A postemergence; format: in vivo, Digitaria sanguinalis; details: 0 to 100 scale (0 no effect, 100 complete control), approx. 10 d
Method in brief: as §1

morningglory [21] = assay: Test A postemergence; format: in vivo, Ipomoea spp.; details: 0 to 100 scale (0 no effect, 100 complete control), approx. 10 d
Method in brief: as §1

velvetleaf [22] = assay: Test A preemergence; format: in vivo, Abutilon theophrasti; details: 0 to 100 scale (0 no effect, 100 complete control)
Method in brief: as §1

wheat [23] = assay: Test A postemergence; format: in vivo, Triticum aestivum; details: 0 to 100 scale (0 no effect, 100 complete control), approx. 10 d
Method in brief: as §1

corn [24] = assay: Test A postemergence; format: in vivo, Zea mays; details: 0 to 100 scale (0 no effect, 100 complete control), approx. 10 d
Method in brief: as §1

CCCc1nc(-c2ccc(F)c(F)c2)nn1Cc1ccnc(C(F)(F)F)c1 [Compound 23]
75: Ducksalad plant response rating (0 to 100) (ducksalad [3]; 125 g ai/ha)
10: Barnyardgrass plant response rating (0 to 100) (barnyardgrass [16]; 62 g ai/ha)
80: Plant response rating, Morningglory (morningglory [1]; 500 g ai/ha, approx. 10 d) | Ducksalad plant response rating (0 to 100) (ducksalad [3]; 250 g ai/ha) | Sedge, Umbrella plant response rating (0 to 100) (sedge, umbrella [4]; 31 g ai/ha) | Plant response rating, Velvetleaf (velvetleaf [22]; 500 g ai/ha, approx. 10 d)
20: Plant response rating, Wheat (wheat [13]; 125 g ai/ha) | Barnyardgrass plant response rating (0 to 100) (barnyardgrass [16]; 250 g ai/ha) | Plant response rating, Corn (corn [17]; 125 g ai/ha)
25: Plant response rating, Rice, Flood (rice [18])
30: Ducksalad plant response rating (0 to 100) (ducksalad [3]; 31 g ai/ha) | Plant response rating, Corn (corn [17]; 500 g ai/ha, approx. 10 d) | Plant response rating, Velvetleaf (velvetleaf [22]; 125 g ai/ha) | Plant response rating, Wheat (wheat [23]; 125 g ai/ha) | Plant response rating, Corn (corn [24]; 125 g ai/ha)
85: Sedge, Umbrella plant response rating (0 to 100) (sedge, umbrella [4]; 62 g ai/ha)
90: Plant response rating, Ducksalad, Flood (ducksalad [2]) | Sedge, Umbrella plant response rating (0 to 100) (sedge, umbrella [4]; 125 g ai/ha) | Plant response rating, Foxtail, Giant (foxtail, giant [10]; 500 g ai/ha) | Plant response rating, Barnyardgrass, Flood (barnyardgrass [14]) | Plant response rating, Crabgrass, Large (crabgrass, large [20]; 500 g ai/ha) | Plant response rating, Morningglory (morningglory [21]; 500 g ai/ha)
70: Plant response rating, Barnyardgrass (barnyardgrass [9]; 500 g ai/ha) | Plant response rating, Foxtail, Giant (foxtail, giant [10]; 125 g ai/ha) | Plant response rating, Velvetleaf (velvetleaf [12]; 125 g ai/ha) | Plant response rating, Crabgrass, Large (crabgrass, large [20]; 125 g ai/ha)
100: Plant response rating, Barnyardgrass (barnyardgrass [5]; 500 g ai/ha, approx. 10 d) | Plant response rating, Crabgrass, Large (crabgrass, large [6]; 125 g ai/ha) | Plant response rating, Crabgrass, Large (crabgrass, large [6]; 500 g ai/ha, approx. 10 d) | Plant response rating, Pigweed (pigweed [7]; 125 g ai/ha) | Plant response rating, Pigweed (pigweed [7]; 500 g ai/ha, approx. 10 d) | Plant response rating, Velvetleaf (velvetleaf [12]; 500 g ai/ha) | Plant response rating, Pigweed (pigweed [15]; 125 g ai/ha) | Plant response rating, Pigweed (pigweed [15]; 500 g ai/ha) | Plant response rating, Foxtail, Giant (foxtail, giant [19]; 125 g ai/ha) | Plant response rating, Foxtail, Giant (foxtail, giant [19]; 500 g ai/ha, approx. 10 d)
0: Rice plant response rating (0 to 100) (rice [8]; 31 g ai/ha) | Rice plant response rating (0 to 100) (rice [8]; 62 g ai/ha) | Rice plant response rating (0 to 100) (rice [8]; 125 g ai/ha) | Rice plant response rating (0 to 100) (rice [8]; 250 g ai/ha) | Barnyardgrass plant response rating (0 to 100) (barnyardgrass [16]; 31 g ai/ha)
60: Plant response rating, Corn (corn [24]; 500 g ai/ha)
15: Barnyardgrass plant response rating (0 to 100) (barnyardgrass [16]; 125 g ai/ha)
95: Sedge, Umbrella plant response rating (0 to 100) (sedge, umbrella [4]; 250 g ai/ha) | Plant response rating, Sedge, Umbrella, Flood (sedge, umbrella [11])
45: Ducksalad plant response rating (0 to 100) (ducksalad [3]; 62 g ai/ha)
40: Plant response rating, Wheat (wheat [13]; 500 g ai/ha, approx. 10 d)
50: Plant response rating, Morningglory (morningglory [1]; 125 g ai/ha) | Plant response rating, Barnyardgrass (barnyardgrass [5]; 125 g ai/ha) | Plant response rating, Barnyardgrass (barnyardgrass [9]; 125 g ai/ha) | Plant response rating, Morningglory (morningglory [21]; 125 g ai/ha) | Plant response rating, Wheat (wheat [23]; 500 g ai/ha)

Cc1nc(-c2ccc(C(F)(F)F)cc2)nn1Cc1cccc(OC(F)(F)F)c1 [Compound 4]
10: Plant response rating, Barnyardgrass (barnyardgrass [9]; 500 g ai/ha) | Plant response rating, Foxtail, Giant (foxtail, giant [10]; 125 g ai/ha) | Plant response rating, Foxtail, Giant (foxtail, giant [10]; 500 g ai/ha) | Plant response rating, Velvetleaf (velvetleaf [12]; 500 g ai/ha) | Plant response rating, Crabgrass, Large (crabgrass, large [20]; 125 g ai/ha) | Plant response rating, Crabgrass, Large (crabgrass, large [20]; 500 g ai/ha) | Plant response rating, Morningglory (morningglory [21]; 125 g ai/ha) | Plant response rating, Corn (corn [24]; 125 g ai/ha) | Plant response rating, Corn (corn [24]; 500 g ai/ha)
0: Plant response rating, Morningglory (morningglory [1]; 125 g ai/ha) | Plant response rating, Morningglory (morningglory [1]; 500 g ai/ha, approx. 10 d) | Ducksalad plant response rating (0 to 100) (ducksalad [3]; 31 g ai/ha) | Ducksalad plant response rating (0 to 100) (ducksalad [3]; 62 g ai/ha) | Ducksalad plant response rating (0 to 100) (ducksalad [3]; 125 g ai/ha) | Ducksalad plant response rating (0 to 100) (ducksalad [3]; 250 g ai/ha) | Sedge, Umbrella plant response rating (0 to 100) (sedge, umbrella [4]; 31 g ai/ha) | Sedge, Umbrella plant response rating (0 to 100) (sedge, umbrella [4]; 62 g ai/ha) | Sedge, Umbrella plant response rating (0 to 100) (sedge, umbrella [4]; 125 g ai/ha) | Sedge, Umbrella plant response rating (0 to 100) (sedge, umbrella [4]; 250 g ai/ha) | Plant response rating, Barnyardgrass (barnyardgrass [5]; 125 g ai/ha) | Plant response rating, Barnyardgrass (barnyardgrass [5]; 500 g ai/ha, approx. 10 d) | Plant response rating, Crabgrass, Large (crabgrass, large [6]; 125 g ai/ha) | Plant response rating, Crabgrass, Large (crabgrass, large [6]; 500 g ai/ha, approx. 10 d) | Plant response rating, Pigweed (pigweed [7]; 125 g ai/ha) | Plant response rating, Pigweed (pigweed [7]; 500 g ai/ha, approx. 10 d) | Rice plant response rating (0 to 100) (rice [8]; 31 g ai/ha) | Rice plant response rating (0 to 100) (rice [8]; 62 g ai/ha) | Rice plant response rating (0 to 100) (rice [8]; 125 g ai/ha) | Rice plant response rating (0 to 100) (rice [8]; 250 g ai/ha) | Plant response rating, Barnyardgrass (barnyardgrass [9]; 125 g ai/ha) | Plant response rating, Velvetleaf (velvetleaf [12]; 125 g ai/ha) | Plant response rating, Wheat (wheat [13]; 125 g ai/ha) | Plant response rating, Wheat (wheat [13]; 500 g ai/ha, approx. 10 d) | Barnyardgrass plant response rating (0 to 100) (barnyardgrass [16]; 31 g ai/ha) | Barnyardgrass plant response rating (0 to 100) (barnyardgrass [16]; 62 g ai/ha) | Barnyardgrass plant response rating (0 to 100) (barnyardgrass [16]; 125 g ai/ha) | Barnyardgrass plant response rating (0 to 100) (barnyardgrass [16]; 250 g ai/ha) | Plant response rating, Corn (corn [17]; 125 g ai/ha) | Plant response rating, Corn (corn [17]; 500 g ai/ha, approx. 10 d) | Plant response rating, Foxtail, Giant (foxtail, giant [19]; 125 g ai/ha) | Plant response rating, Foxtail, Giant (foxtail, giant [19]; 500 g ai/ha, approx. 10 d) | Plant response rating, Velvetleaf (velvetleaf [22]; 125 g ai/ha) | Plant response rating, Velvetleaf (velvetleaf [22]; 500 g ai/ha, approx. 10 d) | Plant response rating, Wheat (wheat [23]; 125 g ai/ha) | Plant response rating, Wheat (wheat [23]; 500 g ai/ha)
40: Plant response rating, Pigweed (pigweed [15]; 125 g ai/ha)
80: Plant response rating, Pigweed (pigweed [15]; 500 g ai/ha)
60: Plant response rating, Morningglory (morningglory [21]; 500 g ai/ha)
